From patent publication US9920010B2, “CXCR7 receptor modulators” (IDORSIA PHARMACEUTICALS LTD, priority 2013, dated 2018)

Molecular target: T1, CXCR7 (Homo sapiens, UniProt P25106)
T1 construct: host or cells: CHO-K1 (PathHunter CHO-K1 CXCR7 b-arrestin cell line, stably transfected)
Assay: PathHunter CHO-K1 CXCR7 b-arrestin recruitment assay (CXCR7 agonistic activity)
Format: cell-based
Details: PathHunter CHO-K1 CXCR7 b-arrestin cell line
Summary of the method: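 Stable CHO-K1 line with C-terminally ProLink-tagged CXCR7 and β-arrestin 2–EA fusion; β-arrestin recruitment restores β-gal activity, read by chemiluminescence after 1 h RT detection. Cells seeded 24 h, starved in OPTIMEM 3–4 h, exposed to compounds 90 min at 37 °C in HBSS/HEPES/BSA. Geometric-mean EC50 from repeated measurements.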

T1 sequence (P25106 whole entry): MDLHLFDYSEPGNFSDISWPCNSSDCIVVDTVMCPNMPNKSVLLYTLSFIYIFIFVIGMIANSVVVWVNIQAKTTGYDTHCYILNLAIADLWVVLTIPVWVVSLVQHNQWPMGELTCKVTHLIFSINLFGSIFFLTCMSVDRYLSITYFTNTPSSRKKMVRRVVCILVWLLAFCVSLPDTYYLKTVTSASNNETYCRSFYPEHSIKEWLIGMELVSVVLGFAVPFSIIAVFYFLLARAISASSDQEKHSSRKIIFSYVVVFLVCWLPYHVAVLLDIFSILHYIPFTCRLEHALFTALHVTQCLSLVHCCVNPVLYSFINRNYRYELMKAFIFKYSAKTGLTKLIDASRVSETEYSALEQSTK
T1 sequence (P32121 whole entry partner): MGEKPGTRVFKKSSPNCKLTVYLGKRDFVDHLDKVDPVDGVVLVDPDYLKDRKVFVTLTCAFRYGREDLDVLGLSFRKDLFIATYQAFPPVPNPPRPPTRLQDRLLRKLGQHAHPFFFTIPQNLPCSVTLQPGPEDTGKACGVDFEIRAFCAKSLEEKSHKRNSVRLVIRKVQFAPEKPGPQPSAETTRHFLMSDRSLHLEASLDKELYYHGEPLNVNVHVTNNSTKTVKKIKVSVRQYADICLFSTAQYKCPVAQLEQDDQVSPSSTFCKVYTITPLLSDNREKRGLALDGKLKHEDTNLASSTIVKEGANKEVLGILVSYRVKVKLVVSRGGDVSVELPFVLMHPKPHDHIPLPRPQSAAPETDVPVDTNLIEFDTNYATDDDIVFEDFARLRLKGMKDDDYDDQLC

| EC50 [nM] | Structure (SMILES) |
| --- | --- |
| 20 | O=C(CNc1cccc2c1CCN(CC1CC1)C2)N(CCNCC(F)(F)F)Cc1ccccc1C(F)(F)F [Example 434, 2-(2-Cyclopropylmethyl-1,2,3,4-tetrahydro-isoquinolin-5-ylamino)-N-[2-(2,2,2-trifluoro-ethylamino)-ethyl]-N-(2-trifluoromethyl-benzyl)-acetamide] |
| 3 | CN(C)CCN(Cc1ccccc1Br)C(=O)CNc1cccc2c1CCN(CC1CC1)C2 [Example 234, N-(2-Bromo-benzyl)-2-(2-cyclopropylmethyl-1,2,3,4-tetrahydro-isoquinolin-5-ylamino)-N-(2-dimethylamino-ethyl)-acetamide] |
| 13 | CN(C)CCN(Cc1ccccc1)C(=O)CNc1cccc2c1CN(CC1CCCCC1)CC2 [compound 194, N-Benzyl-2-(2-cyclohexylmethyl-1,2,3,4-tetrahydro-isoquinolin-8-ylamino)-N-(2-dimethylamino-ethyl)-acetamide] |
| 96 | COCCN1CCc2c(cccc2NCC(=O)N(CCN2CCC(F)(F)CC2)Cc2ncccc2C(F)(F)F)C1 [Example 300, N-[2-(4,4-Difluoro-piperidin-1-yl)-ethyl]-2-[2-(2-methoxy-ethyl)-1,2,3,4-tetrahydro-isoquinolin-5-ylamino]-N-(3-trifluoromethyl-pyridin-2-ylmethyl)-acetamide] |
| 144 | CC(C)(C)OC(=O)NCCN(Cc1ccccc1C(F)(F)F)C(=O)CNc1cccc2c1CCN(CC1CC1)C2 [Example 273, {2-[[2-(2-Cyclopropylmethyl-1,2,3,4-tetrahydro-isoquinolin-5-ylamino)-acetyl]-(2-trifluoromethyl-benzyl)-amino]-ethyl}-carbamic acid tert-butyl ester] |
| 92 | O=C(CNc1cccc2c1CN(CC1CC1)CC2)N(CCN1CCCC(F)(F)C1)Cc1ccccc1C(F)(F)F [compound 478] |
| 10 | NCCN(Cc1ccccc1C(F)(F)F)C(=O)CNc1cccc2c1CCN(CC1CC1)C2 [compound 442, N-(2-Amino-ethyl)-2-(2-cyclopropylmethyl-1,2,3,4-tetrahydro-isoquinolin-5-ylamino)-N-(2-trifluoromethyl-benzyl)-acetamide] |
| 38 | CS(=O)(=O)CCN(Cc1ccccc1C(F)(F)F)C(=O)CNc1cccc2c1CCN(CC1CC1)C2 [Example 229, 2-(2-Cyclopropylmethyl-1,2,3,4-tetrahydro-isoquinolin-5-ylamino)-N-(2-methanesulfonyl-ethyl)-N-(2-trifluoromethyl-benzyl)-acetamide] |
| 376 | O=C1CC(CN(Cc2ccccc2C(F)(F)F)C(=O)CNc2cccc3c2CCN(CC2CC2)C3)=CC=N1 [Example 78, 2-(2-Cyclopropylmethyl-1,2,3,4-tetrahydro-isoquinolin-5-ylamino)-N-(2-oxo-2,3-dihydro-pyridin-4-ylmethyl)-N-(2-trifluoromethyl-benzyl)-acetamide] |
| 31 | CNCCN(Cc1ccccc1C(F)(F)F)C(=O)CNc1cccc2c1CCN(C(=O)OCCF)C2 [compound 400, 5-({[(2-Methylamino-ethyl)-(2-trifluoromethyl-benzyl)-carbamoyl]-methyl}-amino)-3,4-dihydro-1H-isoquinoline-2-carboxylic acid 2-fluoro-ethyl ester] |
| 1 | CN(C)CCN(Cc1ccccc1C(F)(F)F)C(=O)CNc1cccc2c1C(C)(C)CN(CC1CC1)C2 [Example 91, 2-(2-Cyclopropylmethyl-4,4-dimethyl-1,2,3,4-tetrahydro-isoquinolin-5-ylamino)-N-(2-dimethylamino-ethyl)-N-(2-trifluoromethyl-benzyl)-acetamide] |
| 155 | CCN1CCc2cccc(NCC(=O)N(CCc3ccccc3C(F)(F)F)CCN(C)C)c2C1 [compound 538] |
| 93 | CCN1CCc2cccc(NCC(=O)N(CCN(C)C)Cc3ccc(F)cc3)c2C1 [compound 504] |
| 326 | CNCCN(Cc1ccccc1C(F)(F)F)C(=O)CNc1cccc2c1CCN(C(=O)NC1CCCCC1)C2 [compound 407] |
| 37 | CN(C)CCN(Cc1ccccc1C(F)(F)F)C(=O)CNc1cccc2c1CCN(CCF)C2 [Example 286, N-(2-Dimethylamino-ethyl)-2-[2-(2-fluoro-ethyl)-1,2,3,4-tetrahydro-isoquinolin-5-ylamino]-N-(2-trifluoromethyl-benzyl)-acetamide] |
| 77 | CCN1CCc2cccc(NCC(=O)N(CCN(C)C)Cc3ccccc3OC)c2C1 [compound 497] |
| 24 | CN(C)CCN(CCc1ccccc1C(F)(F)F)C(=O)CNc1cccc2c1CCN(CC1CC1)C2 [Example 57, 2-(2-Cyclopropylmethyl-1,2,3,4-tetrahydro-isoquinolin-5-ylamino)-N-(2-dimethylamino-ethyl)-N-[2-(2-trifluoromethyl-phenyl)-ethyl]-acetamide] |
| 59 | CC(C)C(=O)N1CCc2cccc(NCC(=O)N(CCN(C)C)Cc3ccccc3)c2C1 [compound 191] |

| EC50 [nM] | Structure (SMILES) |
| --- | --- |
| 337 | CC(C)COC(=O)N1CCc2c(cccc2NCC(=O)N(CCN(C)C)Cc2ccccc2)C1 [compound 122] |
| 243 | COCCN1CCc2c(/C=C/C(=O)N(Cc3ccccc3C(F)(F)F)CC3(C)COC3)cccc2C1 [Example 324, (E)-3-[2-(2-Methoxy-ethyl)-1,2,3,4-tetrahydro-isoquinolin-5-yl]-N-(3-methyl-oxetan-3-ylmethyl)-N-(2-trifluoromethyl-benzyl)-acrylamide] |
| 49 | O=C(CNc1cccc2c1CCN(CC1CC1)C2)N(Cc1ccccc1C(F)(F)F)C1CCOCC1 [Example 74, 2-(2-Cyclopropylmethyl-1,2,3,4-tetrahydro-isoquinolin-5-ylamino)-N-(tetrahydro-pyran-4-yl)-N-(2-trifluoromethyl-benzyl)-acetamide] |
| 283 | CCC(=O)N1CCc2c(cccc2NCC(=O)N(CCN(C)C)Cc2ccc(OC)cc2)C1 [Example 30, N-(2-Dimethylamino-ethyl)-N-(4-methoxy-benzyl)-2-(2-propionyl-1,2,3,4-tetrahydro-isoquinolin-5-ylamino)-acetamide] |
| 23 | COCCN1CCc2c(CCC(=O)N(CCN(C)C)Cc3ccccc3C(F)(F)F)cccc2C1 [Example 335, N-(2-Dimethylamino-ethyl)-3-[2-(2-methoxy-ethyl)-1,2,3,4-tetrahydro-isoquinolin-5-yl]-N-(2-trifluoromethyl-benzyl)-propionamide] |
| 4 | CC(CF)N(C)CCN(Cc1ccccc1C(F)(F)F)C(=O)CNc1cccc2c1CCN(CC1CC1)C2 (racemic) [compound 452] |
| 23 | CN1CCCC1CCN(C/C=C/c1ccccc1)C(=O)CNc1cccc2c1CCN(CC1CC1)C2 (racemic) [Example 53, rac-2-(2-Cyclopropylmethyl-1,2,3,4-tetrahydro-isoquinolin-5-ylamino)-N-[2-(1-methyl-pyrrolidin-2-yl)-ethyl]-N-((E)-3-phenyl-allyl)-acetamide] |
| 38 | CC(C)OC(=O)N1CCc2cccc(NCC(=O)N(CCN(C)C)Cc3ccccc3)c2C1 [compound 192, 8-({[Benzyl-(2-dimethylamino-ethyl)-carbamoyl]-methyl}-amino)-3,4-dihydro-1H-isoquinoline-2-carboxylic acid isopropyl ester] |
| 46 | Cc1csc(CN(Cc2ccccc2C(F)(F)F)C(=O)CNc2cccc3c2CCN(CC2CC2)C3)n1 [Example 77, 2-(2-Cyclopropylmethyl-1,2,3,4-tetrahydro-isoquinolin-5-ylamino)-N-(4-methyl-thiazol-2-ylmethyl)-N-(2-trifluoromethyl-benzyl)-acetamide] |
| 220 | CCN1CCc2cccc(NCC(=O)N(CCN(C)C)Cc3ccccn3)c2C1 [compound 540] |
| 9 | CCN1CCc2c(CCC(=O)N(CCN(C)C)Cc3ccccc3C(F)(F)F)cccc2C1 [compound 157, N-(2-Dimethylamino-ethyl)-3-(2-ethyl-1,2,3,4-tetrahydro-isoquinolin-5-yl)-N-(2-trifluoromethyl-benzyl)-propionamide] |
| 408 | CN(C)CCN(Cc1ccc(Nc2ccc(F)cc2)cn1)C(=O)CNc1cccc2c1CCN(CC1CC1)C2 [Example 285, 2-(2-Cyclopropylmethyl-1,2,3,4-tetrahydro-isoquinolin-5-ylamino)-N-(2-dimethylamino-ethyl)-N-[5-(4-fluoro-phenylamino)-pyridin-2-ylmethyl]-acetamide] |
| 79 | CCCOC(=O)N1CCc2c(cccc2NCC(=O)N(CCNC)Cc2ncccc2C(F)(F)F)C1 [compound 423] |
| 46 | CCC(=O)N1CCc2c(CCC(=O)N(CCN(C)C)Cc3ccccc3)cccc2C1 [Example 162, N-Benzyl-N-(2-dimethylamino-ethyl)-3-(2-propionyl-1,2,3,4-tetrahydro-isoquinolin-5-yl)-propionamide] |
| 309 | CCC(=O)N1CCc2c(cccc2NCC(=O)N(Cc2ccccc2)Cc2ccccn2)C1 [Example 25, N-Benzyl-2-(2-propionyl-1,2,3,4-tetrahydro-isoquinolin-5-ylamino)-N-pyridin-2-ylmethyl-acetamide] |
| 41 | CCN1CCc2cccc(NCC(=O)N(Cc3ccccc3C(F)(F)F)C3CCN(C)CC3)c2C1 [compound 492, 2-(2-Ethyl-1,2,3,4-tetrahydro-isoquinolin-8-ylamino)-N-(1-methyl-piperidin-4-yl)-N-(2-trifluoromethyl-benzyl)-acetamide] |
| 63 | CN(CCN(Cc1ncccc1C(F)(F)F)C(=O)CNc1cccc2c1CN(CC1CC1)CC2)CC(F)(F)F [compound 477] |

| Structure (SMILES) | EC50 [nM] |
| --- | --- |
| CN(C)CCN(Cc1ccccc1C(F)(F)F)C(=O)Cc1cccc2c1CCN(CC1CC1)C2 [Example 6, 2-(2-Cyclopropylmethyl-1,2,3,4-tetrahydro-isoquinolin-5-yl)-N-(2-dimethylamino-ethyl)-N-(2-trifluoromethyl-benzyl)-acetamide] | 60 |
| CN(C)CCN(Cc1ccccc1)C(=O)COc1cccc2c1CN(C(=O)c1ccccc1)CC2 [Example 207, 2-(2-Benzoyl-1,2,3,4-tetrahydro-isoquinolin-8-yloxy)-N-benzyl-N-(2-dimethylamino-ethyl)-acetamide] | 5 |
